One data set concerns TNF-α. The data set is described as follows: TNF-α production from LPS-stimulated human monocytes (ELISA). Format: cell-based. The settings on record: Monocyte, Conc. 10 μM. The method, then: This assay determines the effect of test compounds on the production of TNF-α from human monocytes. Compounds were tested for their ability to downregulate the production of TNF-α in activated monocytes. Test compounds were incubated for three, six and twenty four hours with human monocytes. Lipopolysaccharide was used to stimulate the monocytes. The level of TNF-α was quantitated using Enzyme-Linked Immunosorbent assay performed in a 96 well format.

A further data set concerns IL-6. Description: IL-6 production from LPS-stimulated human monocytes (ELISA). Format: cell-based. The settings on record: Monocyte, Conc. 10 μM. The method, then: This assay determines the effect of test compounds on the production of IL-6 from human monocytes. Compounds are tested for their ability to downregulate the production of IL-6 in activated monocytes. Test compounds were incubated for three, six and twenty four hours with human monocytes. Lipopolysaccharide was used to stimulate the monocytes. The level of Interleukin-6 is quantitated using Enzyme-Linked Immunosorbent assay performed in a 96 well format.

For another data set, the target named is T1, COX-2 (Homo sapiens, UniProt P35354).
T1 construct: incubation of human blood with lipopolysaccharide (LPS), which induces COX-2 production in the blood; endogenous in cells; host or cells: fresh human whole blood from male volunteers, treated with aspirin and then LPS
T1 sequence (P35354 18-604): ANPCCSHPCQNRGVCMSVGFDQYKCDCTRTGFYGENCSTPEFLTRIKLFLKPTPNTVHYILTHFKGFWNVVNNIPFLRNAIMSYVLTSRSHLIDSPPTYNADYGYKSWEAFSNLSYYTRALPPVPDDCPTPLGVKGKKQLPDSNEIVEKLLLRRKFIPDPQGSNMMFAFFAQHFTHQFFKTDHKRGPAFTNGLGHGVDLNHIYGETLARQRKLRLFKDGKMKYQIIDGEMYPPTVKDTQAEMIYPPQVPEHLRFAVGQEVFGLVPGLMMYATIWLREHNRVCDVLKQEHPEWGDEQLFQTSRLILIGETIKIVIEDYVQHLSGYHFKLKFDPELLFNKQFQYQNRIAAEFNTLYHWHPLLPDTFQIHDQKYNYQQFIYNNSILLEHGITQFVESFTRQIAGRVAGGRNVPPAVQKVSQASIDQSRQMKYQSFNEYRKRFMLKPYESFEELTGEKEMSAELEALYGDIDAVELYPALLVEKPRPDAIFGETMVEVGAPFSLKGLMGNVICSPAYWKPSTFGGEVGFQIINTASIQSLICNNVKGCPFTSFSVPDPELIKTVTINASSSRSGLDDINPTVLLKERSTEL
The data set is described as follows: Human whole blood assay, COX-2 inhibition (PGE2 ELISA after LPS). Format: cell-based. As to conditions: Conc. 1 μM, aspirin-treated, LPS 10 μg/ml, 24 h at 37° C., PGE2 in plasma. The method, then:
The COX-2 inhibition activity of the compounds illustrated in the examples was determined by the following method.
Human whole blood provides a protein and cell rich milieu appropriate for the study of biochemical efficacy of anti-inflammatory compounds such as selective COX-2 inhibitors. […] This is correlating with the observation that COX-2 inhibitors have no effect on prostaglandin E2 (PGE2) production in normal blood. These inhibitors are active only after incubation of human blood with lipopolysaccharide (LPS), which induces COX-2 production in the blood.
Fresh blood was collected in tubes containing potassium EDTA by vein puncture from male volunteers. The subjects should have no apparent inflammatory conditions and not taken NSAIDs for atleast 7 days prior to blood collection. Blood was treated with aspirin in vitro (10 μg/ml, at time zero) to inactivate COX-1, and then with LPS (10 μg/ml) along with test agents or vehicle. The blood was incubated for 24 h at 37° C., after which the tubes were centrifuged, the plasma was separated and stored at −80° C. (J Pharmacol Exp Ther 271, 1705, 1994; Proc Natl Acad Sci USA 96, 7563, 1999). The plasma was assayed for PGE2 using Cayman ELISA kit as per the procedure outlined by the manufacturer (Cayman Chemicals, Ann Arbor, USA). […]
(In an ELISA, binding on a coated surface is turned into a signal by an enzyme label.)

As usually defined, the inhibition is the share of the control response that was lost under treatment. A low value points to little suppression. The term melting point denotes the temperature of the solid-liquid transition.

`CSc1ccc(-n2c(-c3ccccc3)cc(=O)[nH]c2=O)cc1` [Example 1, 1-(4-methylsulfanyl-phenyl)-6-phenyl-1H-pyrimidin-2,4-(1H)-dione]: the melting point is 239 to 242 °C (dec.). In the data set on TNF-α, the inhibition at 10 µM was 48.5%. In addition, the inhibition at 10 µM in the data set with IL-6 was determined as 80.6%.

With `CSc1ccc(-n2c(-c3ccc(C)cc3)cc(=O)[nH]c2=O)cc1` [Example 2, 1-(4-methylsulfanyl-phenyl)-6-(4-methylphenyl)-1H-pyrimidin-2,4-(1H)-dione], the melting point was in the range of 235 to 238 °C. In the data set on TNF-α, this compound gave an inhibition at 10 µM of 69.3%. 10 µM produced 78.6% inhibition with IL-6.

Compound `CSc1ccc(-n2c(-c3ccc(Cl)cc3)cc(=O)[nH]c2=O)cc1` [Example 3, 1-(4-methylsulfanyl-phenyl)-6-(4-chlorophenyl)-1H-pyrimidin-2,4-(1H)-dione] came in with a melting point of 249 to 251 °C.

`CSc1ccc(-c2cc(=O)[nH]c(=O)n2-c2ccc(C)cc2)cc1` [Example 4, 1-(4-methylphenyl)-6-(4-methylsulfanyl-phenyl)-1H-pyrimidin-2,4-(1H)-dione]: the melting point lay within 266 to 268 °C.

`CSc1ccc(-c2cc(=O)[nH]c(=O)n2-c2ccc(Br)cc2)cc1` [Example 5, 1-(4-bromophenyl)-6-(4-methylsulfanyl-phenyl)-1H-pyrimidin-2,4-(1H)-dione] came in with a melting point of 282 to 285 °C.

As for `CS(=O)(=O)c1ccc(-n2c(-c3ccccc3)cc(=O)[nH]c2=O)cc1` [Example 6, 1-(4-methylsulfonyl-phenyl)-6-phenyl-pyrimidin-1H-pyrimidin-2,4-(1H)-dione], the melting point is 283 to 287 °C (dec.). Also, at 10 µM the inhibition in the data set on TNF-α was 43.2%. Also, the inhibition at 10 µM with IL-6 came out at 75.3%.

As for `Cc1ccc(-c2cc(=O)[nH]c(=O)n2-c2ccc(S(C)(=O)=O)cc2)cc1` [Example 7], the melting point is 285 to 288 °C. This compound also returned an inhibition at 1 µM against COX-2 of 40.8%. Further, at 10 µM the inhibition with TNF-α was 57.6%. This compound also returned an inhibition at 10 µM in the data set with IL-6 of 81.3%.

In turn, `CS(=O)(=O)c1ccc(-n2c(-c3ccc(Cl)cc3)cc(=O)[nH]c2=O)cc1` [Example 8, 6-(4-chlorophenyl)-1-(4-methylsulfonyl-phenyl)-1H-pyrimidin-2,4-(1H)-dione] yielded a melting point of 294 to 298 °C.

These data come from US7399760B2, “Pyrimidinedione derivatives” (Bexel Pharmaceuticals Inc., priority 2002, dated 2008).
